According to EPA's ToxRefDB 2:

Assays:
rat [1] = conditions: Combined chronic toxicity/carcinogenicity, sprague dawley, Oral, Feed, dose end: 104 week
rabbit [2] = conditions: Prenatal developmental toxicity study, new zealand white, Oral, Gavage/Intubation, dose end: 19 GD, group: maternal
rabbit [3] = conditions: Prenatal developmental toxicity study, New Zealand White, Oral, Gavage/Intubation, dose end: 19 GD, group: maternal
rat [4] = conditions: Subchronic oral toxicity in rodents, sprague dawley, Gavage/Intubation, dose end: 90 day, group: systemic
rat [5] = conditions: Subchronic inhalation toxicity, sprague dawley, Whole-Body, dose end: 13 week
rabbit [6] = conditions: Prenatal developmental toxicity study, new zealand white, Oral, Gavage/Intubation, dose end: 19 GD, group: maternal; remark: listed apart in the source
rat [7] = conditions: Subchronic dermal toxicity, sprague dawley, Topical, dose end: 91 day
rat [8] = conditions: Neurotoxicity screening battery; sprague dawley; Oral; Feed; dose end: 13 week; group: cannot be grouped; cholinesterase / cholinesterase / cholinesterase / plasma cholinesterase (che) + systemic / in life observation / food consumption / food …
rat [9] = conditions: Prenatal developmental toxicity study, sprague dawley, Oral, Gavage/Intubation, dose end: 15 GD
rat [10] = conditions: Prenatal developmental toxicity study, sprague dawley, Oral, Gavage/Intubation, dose end: 15 GD; remark: listed apart in the source
mouse = conditions: Carcinogenicity, cd1, Oral, Feed, dose end: 78 week, group: systemic
rat [11] = conditions: Prenatal developmental toxicity study, sprague dawley, Oral, Gavage/Intubation, dose end: 15 GD; remark: listed apart in the source
rat [12] = conditions: Subchronic oral toxicity in rodents, sprague dawley, Gavage/Intubation, dose end: 90 day
[13] = group: cholinesterase, cholinesterase / cholinesterase / cholinesterase / erythrocyte cholinesterase (che) + cholinesterase / cholinesterase / cholinesterase / …
[14] = group: cholinesterase, cholinesterase / cholinesterase / cholinesterase / plasma cholinesterase (che)
[15] = group: systemic, systemic / in life observation / body weight / body weight gain
[16] = group: systemic, systemic / in life observation / body weight / body weight gain + systemic / clinical chemistry / cholesterol / cholesterol + systemic / …
[17] = systemic / in life observation / clinical signs / defecation + systemic / in life observation / food consumption / food consumption + …
[18] = systemic / in life observation / body weight / body weight gain + systemic / in life observation / food consumption / food consumption + …
[19] = group: cholinesterase, cholinesterase / cholinesterase / cholinesterase / brain cholinesterase (che)
[20] = group: cholinesterase, cholinesterase / cholinesterase / cholinesterase / brain cholinesterase (che) + cholinesterase / cholinesterase / cholinesterase / …
[21] = group: systemic, systemic / clinical chemistry / glucose / glucose + systemic / clinical chemistry / alanine aminotransferase (alt/sgpt) / alanine …
[22] = reproductive / reproductive performance / resorptions / resorptions + systemic / in life observation / body weight / body weight gain + …
[23] = group: cholinesterase, cholinesterase / cholinesterase / cholinesterase / plasma cholinesterase (che) + cholinesterase / cholinesterase / cholinesterase / …
[24] = group: systemic, systemic / pathology microscopic / skin / hyperkeratosis + systemic / clinical chemistry / calcium / calcium + systemic / clinical chemistry…
[25] = group: systemic, systemic / pathology microscopic / skin / hyperkeratosis + systemic / clinical chemistry / glucose / glucose + systemic / in life …
[26] = group: developmental, developmental / developmental malformation / bone / unossified + systemic / in life observation / body weight / fetal weight
[27] = group: maternal, systemic / in life observation / body weight / body weight gain + systemic / in life observation / food consumption / food consumption + …
[28] = group: developmental, developmental / developmental malformation / bone / incomplete ossification + developmental / developmental malformation / bone / wavy
[29] = group: maternal, systemic / in life observation / body weight / body weight gain
[30] = systemic / pathology microscopic / thyroid gland / vacuolization + systemic / pathology microscopic / thyroid gland / hypertrophy
[31] = systemic / pathology microscopic / thyroid gland / vacuolization + systemic / pathology microscopic / thyroid gland / hypertrophy + systemic…
[32] = group: developmental, developmental / developmental landmark / [other] / [other]
[33] = group: maternal, systemic / in life observation / body weight / body weight gain + systemic / in life observation / clinical signs / salivation + systemic / …
[34] = group: cholinesterase, cholinesterase / cholinesterase / cholinesterase / cholinesterase (che)
[35] = group: systemic, systemic / in life observation / clinical signs / salivation + systemic / pathology gross / liver / misshapen
[36] = group: systemic, systemic / in life observation / clinical signs / salivation + systemic / pathology gross / liver / misshapen + systemic / pathology …

`CCCCNC(=O)OCC#CI` [3-Iodo-2-propynyl-N-butylcarbamate] was tested, and the LOAEL (rat [1]; [13]) was over 80.1 mg/kg/day, the NOAEL (rat [1]; [13]) was at least 80.1 mg/kg/day and the LEL (rat [1]; [14]) was 20.1 mg/kg/day. It also gave an NEL (rat [1]; [14]) of under 20.1 mg/kg/day, an LOAEL (rat [1]; [15]) of 20.1 mg/kg/day and an NOAEL (rat [1]; [15]) of under 20.1 mg/kg/day. For the same compound, the LEL (rat [1]; [16]) was 20.1 mg/kg/day, the NEL (rat [1]; [16]) was under 20.1 mg/kg/day and the LEL (rabbit [2]; [17]) was 20 mg/kg/day. It also gave an NEL (rabbit [2]; [17]) of 10 mg/kg/day, an NOAEL (rabbit [2]; [17]) of 20 mg/kg/day and an LOAEL (rabbit [2]; systemic / in life observation / clinical signs / defecation + systemic / pathology gross / stomach / discolored + reproductive / …) of 40 mg/kg/day. It also gave an LOAEL (rabbit [3]; systemic / in life observation / body weight / body weight gain + systemic / in life observation / food consumption / food consumption) of 20 mg/kg/day, an LEL (rabbit [3]; [18]) of 20 mg/kg/day and an NEL (rabbit [3]; [18]) of 10 mg/kg/day. For the same compound, the NOAEL (rabbit [3]; [18]) was 10 mg/kg/day, the NEL (rat [4]; systemic / in life observation / clinical signs / post-dosing rooting in bedding + systemic / organ weight / liver / relative to body weight…) was 20 mg/kg/day and the LOAEL (rat [4]; systemic / organ weight / liver / relative to body weight) was 50 mg/kg/day. The NOAEL (rat [4]; systemic / organ weight / liver / relative to body weight + systemic / in life observation / body weight / body weight gain + systemic / in …) was 20 mg/kg/day, the LEL (rat [4]; systemic / organ weight / liver / relative to body weight + systemic / in life observation / clinical signs / post-dosing rooting in bedding…) was 50 mg/kg/day and the LEL (rat [5]; [19]) was 0.11 ppm. For the same compound, the LOAEL (rat [5]; [19]) was 0.11 ppm, the NEL (rat [5]; [20]) was 0.0217 ppm and the NOAEL (rat [5]; [20]) was 0.0217 ppm. For the same compound, the LEL (rat [5]; group: systemic, systemic / clinical chemistry / glucose / glucose) was 0.11 ppm, the LOAEL (rat [5]; [21]) was over 0.54 ppm and the NEL (rat [5]; [21]) was 0.0217 ppm. The NOAEL (rat [5]; [21]) was at least 0.54 ppm, the LEL (rabbit [6]; reproductive / reproductive performance / resorptions / resorptions) was 20 mg/kg/day and the NEL (rabbit [6]; [22]) was 2 mg/kg/day. For the same compound, the NOAEL (rabbit [6]; [22]) was 20 mg/kg/day, the LOAEL (rabbit [6]; systemic / in life observation / body weight / body weight gain + systemic / in life observation / clinical signs / [other] + systemic / in …) was 50 mg/kg/day and the NEL (rat [7]; [14]) was 200 mg/kg/day. For the same compound, the LEL (rat [7]; [23]) was 500 mg/kg/day, the LOAEL (rat [7]; [23]) was over 500 mg/kg/day and the NOAEL (rat [7]; [23]) was at least 500 mg/kg/day. The NEL (rat [7]; [24]) was 50 mg/kg/day, the NOAEL (rat [7]; [24]) was 50 mg/kg/day and the LEL (rat [7]; [25]) was 200 mg/kg/day. For the same compound, the LOAEL (rat [7]; [25]) was 200 mg/kg/day, the LEL (rat [8]) was 50 mg/kg/day and the LOAEL (rat [8]) was 50 mg/kg/day. For the same compound, the NEL (rat [8]) was 10 mg/kg/day, the NOAEL (rat [8]) was 10 mg/kg/day and the LEL (rat [9]; [26]) was 250 mg/kg/day. The LOAEL (rat [9]; [26]) was 250 mg/kg/day, the NEL (rat [9]; [26]) was 75 mg/kg/day and the NOAEL (rat [9]; [26]) was 75 mg/kg/day. It also gave an LOAEL (rat [9]; group: maternal, systemic / in life observation / body weight / body weight gain + systemic / in life observation / food consumption / food consumption) of 75 mg/kg/day, an LEL (rat [9]; [27]) of 75 mg/kg/day and an NEL (rat [9]; [27]) of 25 mg/kg/day. It also gave an NOAEL (rat [9]; [27]) of 25 mg/kg/day, an LEL (rat [10]; [28]) of 125 mg/kg/day and an LOAEL (rat [10]; [28]) of 125 mg/kg/day. For the same compound, the NEL (rat [10]; [28]) was 50 mg/kg/day, the NOAEL (rat [10]; [28]) was 50 mg/kg/day and the LEL (rat [10]; [29]) was 125 mg/kg/day. The LOAEL (rat [10]; [29]) was 125 mg/kg/day, the NEL (rat [10]; [29]) was 50 mg/kg/day and the NOAEL (rat [10]; [29]) was 50 mg/kg/day. It also gave an LOAEL (mouse; [30]) of 19.8 mg/kg/day, an NOAEL (mouse; [30]) of under 19.8 mg/kg/day and an LEL (mouse; [31]) of 19.8 mg/kg/day. It also gave an NEL (mouse; [31]) of under 19.8 mg/kg/day, an LEL (rat [11]; [32]) of 250 mg/kg/day and an LOAEL (rat [11]; [32]) of 250 mg/kg/day. It also gave an NEL (rat [11]; [32]) of 75 mg/kg/day, an NOAEL (rat [11]; [32]) of 75 mg/kg/day and an LEL (rat [11]; [33]) of 75 mg/kg/day. It also gave an LOAEL (rat [11]; [33]) of 75 mg/kg/day, an NEL (rat [11]; [33]) of 25 mg/kg/day and an NOAEL (rat [11]; [33]) of 25 mg/kg/day. For the same compound, the LEL (rat [12]; [34]) was 75 mg/kg/day, the LOAEL (rat [12]; [34]) was over 200 mg/kg/day and the NEL (rat [12]; [34]) was 25 mg/kg/day. It also gave an NOAEL (rat [12]; [34]) of at least 200 mg/kg/day, an LOAEL (rat [12]; [35]) of 25 mg/kg/day and an NOAEL (rat [12]; [35]) of under 25 mg/kg/day. It also gave an LEL (rat [12]; [36]) of 25 mg/kg/day and an NEL (rat [12]; [36]) of under 25 mg/kg/day.
